Test results: patent US20250161216A1, “CATIONIC LIPID ANALOGUES, COMPOSITIONS AND USES THEREOF” (GUANGZHOU LIDE BIOMEDICINE TECHNOLOGY CO., LTD., priority 2022, published 2025)

Test system: C57BL/6 mice
Experiment: In vivo expression level of Luciferase-mRNA delivered by intravenous injection (bioluminescence imaging)
Settings: mRNA-loaded nanoparticles, intravenous (tail vein), 5 μg Luciferase-mRNA, 6 hours
Method: Luciferase-mRNA was used as an mRNA model; and the cationic lipid analogues of Examples 1-5 were used to prepare drug-loaded nanoparticles according to the method of Example 6.
200 μL of nanoparticles containing 5 μg Luciferase-mRNA or the drug-loaded nanoparticles prepared above were injected into tail veins of 6-8 week-old C57BL/6 mice, and 200 μL of 1×PBS solution containing 3 mg D-Luciferin potassium salt was intraperitoneally injected into the mice 6 hours later. After waiting for 10 minutes, an in vivo expression level of the mRNA was evaluated by bioluminescence imaging.

Row | SMILES | Fluorescence intensity of spleen (compounds of Example 2) | Fluorescence intensity of liver (compounds of Example 1) | further results
1 | CCCCC/C=C\C/C=C\CCCCCCCC(=O)N(CCC)C(C(=O)NCCN(C)CCNC(=O)C(C(CC)CCCC)N(CCC)C(=O)CCCCCCC/C=C\C/C=C\CCCCC)C(CC)CCCC (stereo not drawn) [A4I4R21C18-2] | 1.91E+04 |  | 
2 | CCCCCCCCCCCCCCCCCC(=O)N(CCC)C(C(=O)NCCN(C)CCNC(=O)C(C(CC)CCCC)N(CCC)C(=O)CCCCCCCCCCCCCCCCC)C(CC)CCCC (stereo not drawn) [A4I4R21C18] | 2.09E+04 |  | 
3 | CCCCCCCC/C=C\CCCCCCCC(=O)N(CCOC)C(C(=O)NCCN(C)CCNC(=O)C(C(CC)CCCC)N(CCOC)C(=O)CCCCCCC/C=C\CCCCCCCC)C(CC)CCCC (stereo not drawn) [A4I4R23C18-1] | 6.08E+04 |  | 
4 | CCCCC/C=C\C/C=C\CCCCCCCC(=O)N(CCCN(C)C)C(C(=O)NCCCCCCCCCCCCCC)C(CC)CCCC (stereo not drawn) [A4I10R2C18-2] |  | 1.15E+06 | 
5 | CCCCC/C=C\C/C=C\CCCCCCCC(=O)N(CCCN(C)C)C(C(=O)NCCCCCCCCCCCCCC)C(CC)CCCC (stereo not drawn) [A4I14R2C18-2] |  | 9.02E+05 | 
6 | CC/C=C\C/C=C\C/C=C\CCCCCCCC(=O)N(CCN(C)C)C(C(=O)NCCCCCCCCCCCCCCCCCC)C(CC)CCCC (stereo not drawn) [A4I18R1C18-3] |  | 3.88E+06 | 
7 | CCCCCCCCCCCCCCCCCCNC(=O)C(C(CC)CCCC)N(CCN(C)C)C(=O)CCCCCCCCCCCCCCCCC (stereo not drawn) [A4I18R1C18] |  | 3.65E+05 | 
8 | CCCCCCCCCCCCC#CC#CCCCCCCCCC(=O)N(CCN(C)C)C(C(=O)NCCCCCCCCCCCCCCCCCC)C(CC)CCCC (stereo not drawn) [A4I18R1C23] |  | 1.78E+06 | 
9 | CC/C=C\C/C=C\C/C=C\CCCCCCCC(=O)N(CCCN(C)C)C(C(=O)NCCCCCCCCCCCCCCCCCC)C(CC)CCCC (stereo not drawn) [A4I18R2C18-3] |  |  | Bioluminescence intensity (compounds of Example 1): 1.36E+07
10 | CCCCCCCCCCCCC#CC#CCCCCCCCCC(=O)N(CCCN(C)C)C(C(=O)NCCCCCCCCCCCCCCCCCC)C(CC)CCCC (stereo not drawn) [A4I18R2C23] |  |  | Bioluminescence intensity (compounds of Example 1): 1.40E+07
11 | CCCCCCCCCCCCC#CC#CCCCCCCCCC(=O)N(CCCN(CC)CC)C(C(=O)NCCCCCCCCCCCCCCCCCC)C(CC)CCCC (stereo not drawn) [A4I18R3C18-3] |  |  | Bioluminescence intensity (compounds of Example 1): 1.32E+07
12 | CCCCCCCCCCCCCCCCCCNC(=O)C(C(CC)CCCC)N(CCCN(CC)CC)C(=O)CCCCCCCCCCCCCCCCC (stereo not drawn) [A4I18R3C18] |  | 1.69E+06 | 
13 | CCCCCCCCCCCCC#CC#CCCCCCCCCC(=O)N(CCCN(CC)CC)C(C(=O)NCCCCCCCCCCCCCCCCCC)C(CC)CCCC (stereo not drawn) [A4I18R3C23] |  | 7.81E+06 | 
14 | CCCCC/C=C\C/C=C\CCCCCCCC(=O)N(CCN1CCOCC1)C(C(=O)NCCCCCCCCCCCCCCCCCC)C(CC)CCCC (stereo not drawn) [A4I18R4C18-2] |  | 1.25E+04 | 
15 | CCCCC/C=C\C/C=C\CCCCCCCC(=O)N(CCN(C)CC)C(C(=O)NCCCCCCCCCCCCCCCCCC)C(CC)CCCC (stereo not drawn) [A4I18R6C18-2] |  | 3.64E+04 | 
16 | CCCCC/C=C\C/C=C\CCCCCCCC(=O)N(CCCN(C)c1ccccc1)C(CCCCC)C(=O)NCCCCCCCCCCCCCCCCCC (stereo not drawn) [A4I18R7C18-2] |  | 5.22E+03 | 
17 | CCCCC/C=C\C/C=C\CCCCCCCC(=O)N(CCN(CC)CC)C(C(=O)NCCCCCCCCCCCCCCCCCC)C(CC)CCCC (stereo not drawn) [A4I18R8C18-2] |  | 2.48E+04 | 
18 | CCCCC/C=C\C/C=C\CCCCCCCC(=O)N(CCCN1CCN(C)CC1)C(CCCCC)C(=O)NCCCCCCCCCCCCCCCCCC (stereo not drawn) [A4I18R9C18-2] |  | 2.55E+03 | 

Row | SMILES | Fluorescence intensity of spleen (compounds of Example 2) | Fluorescence intensity of liver (compounds of Example 1) | further results
19 | CCCCC/C=C\C/C=C\CCCCCCCC(=O)N(CCN1CCCC1)C(CCCCC)C(=O)NCCCCCCCCCCCCCCCCCC (stereo not drawn) [A4I18R10C18-2] |  | 7.89E+05 | 
20 | CCCCC/C=C\C/C=C\CCCCCCCC(=O)N(CCC1CCCN1C)C(CCCCC)C(=O)NCCCCCCCCCCCCCCCCCC (stereo not drawn) [A4I18R11C18-2] |  | 1.02E+06 | 
21 | CCCCC/C=C\C/C=C\CCCCCCCC(=O)N(CCCN(C)C)C(C(=O)NCCCCCCCCCCCCCCCCCC)C(C)CCC=C(C)C (stereo not drawn) [A5I18R2C18-2] |  | 8.72E+05 | 
22 | CCCCCCCC/C=C\CCCCCCCC(=O)N(CCCN(C)C)C(C(=O)NCCN(C)CCNC(=O)C(C1CC1)N(CCCN(C)C)C(=O)CCCCCCC/C=C\CCCCCCCC)C1CC1 (stereo not drawn) [A21I4R2C18-1] |  |  | Bioluminescence intensity (compounds of Example 2): 8.38E+02
23 | CCCCC/C=C\C/C=C\CCCCCCCC(=O)N(CCCN(C)C)C(C(=O)NCCN(C)CCNC(=O)C(C1CC1)N(CCCN(C)C)C(=O)CCCCCCC/C=C\C/C=C\CCCCC)C1CC1 (stereo not drawn) [A21I4R2C18-2] | 1.83E+03 |  | 
24 | CCCCCCCCCCCCCCCCCC(=O)N(CCCN(C)C)C(C(=O)NCCN(C)CCNC(=O)C(C1CC1)N(CCCN(C)C)C(=O)CCCCCCCCCCCCCCCCC)C1CC1 (stereo not drawn) [A21I4R2C18] | 1.04E+03 |  | 
25 | CCCCCCCC/C=C\CCCCCCCC(=O)N(CCN1CCCCCC1)C(C(=O)NCCN(C)CCNC(=O)C(C1CC1)N(CCN1CCCCCC1)C(=O)CCCCCCC/C=C\CCCCCCCC)C1CC1 (stereo not drawn) [A21I4R13C18-1] |  |  | Bioluminescence intensity (compounds of Example 2): 9.59E+02
26 | CCCCC/C=C\C/C=C\CCCCCCCC(=O)N(CCN1CCCCCC1)C(C(=O)NCCN(C)CCNC(=O)C(C1CC1)N(CCN1CCCCCC1)C(=O)CCCCCCC/C=C\C/C=C\CCCCC)C1CC1 (stereo not drawn) [A21I4R13C18-2] |  |  | Bioluminescence intensity (compounds of Example 2): 8.67E+02
27 | CCCCCCCCCCCCCCCCCC(=O)N(CCN1CCCCCC1)C(C(=O)NCCN(C)CCNC(=O)C(C1CC1)N(CCN1CCCCCC1)C(=O)CCCCCCCCCCCCCCCCC)C1CC1 (stereo not drawn) [A21I4R13C18] | 1.12E+03 |  | 
28 | CCCCCCCC/C=C\CCCCCCCC(=O)N(CCC)C(C(=O)NCCN(C)CCNC(=O)C(C1CC1)N(CCC)C(=O)CCCCCCC/C=C\CCCCCCCC)C1CC1 (stereo not drawn) [A21I4R21C18-1] | 8.50E+03 |  | 
29 | CCCCC/C=C\C/C=C\CCCCCCCC(=O)N(CCC)C(C(=O)NCCN(C)CCNC(=O)C(C1CC1)N(CCC)C(=O)CCCCCCC/C=C\C/C=C\CCCCC)C1CC1 (stereo not drawn) [A21I4R21C18-2] | 1.39E+03 |  | 
30 | CCCCCCCCCCCCCCCCCC(=O)N(CCC)C(C(=O)NCCN(C)CCNC(=O)C(C1CC1)N(CCC)C(=O)CCCCCCCCCCCCCCCCC)C1CC1 (stereo not drawn) [A21I4R21C18] | 5.31E+03 |  | 
31 | CCCCCCCC/C=C\CCCCCCCC(=O)N(CCO)C(C(=O)NCCN(C)CCNC(=O)C(C1CC1)N(CCO)C(=O)CCCCCCC/C=C\CCCCCCCC)C1CC1 (stereo not drawn) [A21I4R22C18-1] | 1.76E+04 |  | 
32 | CCCCC/C=C\C/C=C\CCCCCCCC(=O)N(CCO)C(C(=O)NCCN(C)CCNC(=O)C(C1CC1)N(CCO)C(=O)CCCCCCC/C=C\C/C=C\CCCCC)C1CC1 (stereo not drawn) [A21I4R22C18-2] | 1.26E+03 |  | 
33 | CCCCCCCC/C=C\CCCCCCCC(=O)N(CCOC)C(C(=O)NCCN(C)CCNC(=O)C(C1CC1)N(CCOC)C(=O)CCCCCCC/C=C\CCCCCCCC)C1CC1 (stereo not drawn) [A21I4R23C18-1] | 2.28E+04 |  | 
34 | CCCCC/C=C\C/C=C\CCCCCCCC(=O)N(CCOC)C(C(=O)NCCN(C)CCNC(=O)C(C1CC1)N(CCOC)C(=O)CCCCCCC/C=C\C/C=C\CCCCC)C1CC1 (stereo not drawn) [A21I4R23C18-2] | 6.97E+04 |  | 
35 | CCCCCCCCCCCCCCCCCC(=O)N(CCOC)C(C(=O)NCCN(C)CCNC(=O)C(C1CC1)N(CCOC)C(=O)CCCCCCCCCCCCCCCCC)C1CC1 (stereo not drawn) [A21I4R23C18] | 2.65E+04 |  | 
36 | CCCCCCCC/C=C\CCCCCCCC(=O)N(CCCN(C)C)C(C(=O)NCCN(C)CCNC(=O)C(C1CCCCC1)N(CCCN(C)C)C(=O)CCCCCCC/C=C\CCCCCCCC)C1CCCCC1 (stereo not drawn) [A23I4R2C18-1] | 1.78E+03 |  | 
